Measured values: patent publication US10487113B2, “Peptide having activity to improve skin condition and use thereof” (CAREGEN CO., LTD., priority 2014, dated 2019)

Legend:
[1] = tested on: Human primary dermal fibroblast cells; experiment: Human primary dermal fibroblast cell proliferation, SRB assay; assay type: cell-based; conditions: 1 ng/ml to 1 ug/ml, 72 hours, SRB assay OD 590 nm
Method: Human primary dermal fibroblast cells were treated with CG-Renuin (peptide of SEQ ID NO: 1) and CG-Noverin (peptide of SEQ ID NO: 2) at different concentrations (1 ng/ml to 1 ug/ml), and the cells were incubated for 72 hours in a cell incubator. Then, the cell proliferation change by the peptide treatment was analyzed through SRB assay (OD 590 nm).

[2] = tested on: NIH3T3 cells; experiment: Western blotting of pERK and p38 in UVA-irradiated cells; assay type: cell-based; conditions: 1-10 ug/ml, 30 minutes, then UVA (8 J), 24 hours
Method: NIH3T3 cells ([…]) were seeded in a 6-well plate at a cell density of 2×10^5 cells/well, followed by incubation overnight, and then the cells were treated with CG-Renuin or CG-Noverin peptides at different concentrations (1-10 ug/ml), followed by incubation at 37 °C for 30 minutes. Then, the cells were irradiated with UVA (8 J), followed by incubation for 24 hours. The lysates were obtained by the treatment with the cell lysis buffer, followed by protein quantification. For the confirmation of the expression of cellular activating factors, western blotting was conducted using the anti-pERK (Santa Cruz Biotechnology, USA) and p38 (Santa Cruz Biotechnology, USA) antibodies.

[3] = biological target: T1, MMP2 (Homo sapiens, UniProt P08253); experiment: rhMMP2 inhibition by gelatin zymography; assay type: biochemical; conditions: rhMMP2 mixed with peptide 0.1 ug/ml and 1 ug/ml, room temperature, 1 hour
T1 sequence (P08253 110-660): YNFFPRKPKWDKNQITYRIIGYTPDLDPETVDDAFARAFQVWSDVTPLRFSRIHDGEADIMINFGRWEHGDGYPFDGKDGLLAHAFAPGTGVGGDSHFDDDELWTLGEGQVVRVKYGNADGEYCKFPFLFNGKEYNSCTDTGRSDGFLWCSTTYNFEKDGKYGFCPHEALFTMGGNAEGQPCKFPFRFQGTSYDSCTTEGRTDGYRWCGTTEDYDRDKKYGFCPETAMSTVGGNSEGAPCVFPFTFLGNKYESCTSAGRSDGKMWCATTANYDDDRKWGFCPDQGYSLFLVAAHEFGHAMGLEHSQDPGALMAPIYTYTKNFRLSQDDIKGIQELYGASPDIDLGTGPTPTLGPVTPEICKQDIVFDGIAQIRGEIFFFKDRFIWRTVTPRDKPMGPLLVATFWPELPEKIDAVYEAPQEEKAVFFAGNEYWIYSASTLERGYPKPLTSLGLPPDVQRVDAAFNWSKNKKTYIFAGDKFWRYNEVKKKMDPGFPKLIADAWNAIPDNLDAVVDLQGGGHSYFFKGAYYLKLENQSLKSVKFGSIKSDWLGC
Method: (§1) After rhMMP2 was mixed with the peptides at different concentrations (0.1 ug/ml and 1 ug/ml), the incubation was conducted at room temperature for 1 hour. Then, in order to investigate the expression of rhMMP2 through gelatin zymography, protein electrophoresis (SDS-PAGE) was conducted using gelatin (2 mg/ml) as a substrate. After the electrophoresis, the gel was immersed in 2.5% Triton X-100 for 30 minutes, and then incubated in a buffer containing 50 mM Tris-HCl, 0.2 M NaCl, 5 mM CaCl2), and 1% Triton X-100 at 37 °C for 24 hours. After the incubation, the gel was stained with Coo-massie Brilliant Blue R250 (Sigma), and de-stained with a solution containing 5% methanol, 7.5% acetic acid, and distilled water. In addition, the bands formed by gelatin hydrolysis were observed.

[4] = biological target: T2, MMP2 (Mus musculus, UniProt P33434); experiment: MMP2 activity in TNF-α-induced fibroblast cells (NIH3T3), gelatin zymography; assay type: cell-based; conditions: NIH3T3, MMP2 induced by TNF-α; 10, 100, 1000 ng/ml, 24 hours
T2 construct: endogenous in cells; host or cells: NIH3T3
Method: as §1, with “Fibroblast cells (NIH3T3) were seeded in a 24-well plate at a cell density of 3×10^4 cells/well. The next day, the cells were incubated in serum-less medium for 24 hours, and the expression and activation of MMP2 were induced by TNF-α. The cells were treated” for “After rhMMP2 was mixed”, “CG-Renuin or CG-Noverin” for “the peptides”, “(10 ng/ml, 100 ng/ml, 1000 ng/ml), followed by incubation for 24 hours. The supernatant obtained from centrifugation at 14,000×g for 10 minutes was incubated,” for “(0.1 ug/ml”, “then,” for “1 ug/ml), the incubation was conducted at room temperature for 1 hour. Then,”, “MMP2” for “rhMMP2”

[5] = tested on: HaCaT keratinocytes; experiment: Melanosome transfer: phagocytosis assay with fluorescent bioparticles; assay type: cell-based; conditions: trypsin 1 μg/ml induction, peptide 1 μg/ml, 48 hours; trypsin treatment group considered 100%
Method: In order to observe melanosome transfer, phagocytosis assay was conducted using HaCaT keratinocytes. Bioparticles with a fluorescence substance attached thereto were used as a substance for phagocytosis. The cells were seeded in a 96-well tissue culture plate at 3×10^3 cells/well, incubated for 24 hours, and then incubated in a serum-free medium for 6 hours. Thereafter, for the induction of phagocytosis, the cells were treated with 1 μg/ml of trypsin, and then the cells were treated with 1 μg/ml of peptides for 48 hours. As a result, it was confirmed through a fluorescent microscope that the bioparticles were phagocytized into keratocytes. From the observation when the data with respect to a phagocytosis induction group, that is, a trypsin treatment group, were considered to be 100%, it was verified that phagocytosis was inhibited in the CG-Noverin treatment group and the CG-Renuin treatment group.

[6] = biological target: T1, MMP2; experiment: Inhibition of MMP2-induced collagen degradation in human dermal fibroblast (HDF) cells, pro-collagen type I kit; assay type: cell-based; set-up: purchased SIGMA/USA; host or cells: added to human dermal fibroblast (HDF) cells; conditions: MMP2 20 ng/ml co-treatment, 6 hours, or after IGF-1 100 ng/ml, 4 hours, pro-collagen type I in supernatant
Method: Human dermal fibroblast (HDF) cells (3×10^4) were seeded in a 24-well plate. The next day, the cells were incubated in 5% serum medium for 42 hours, treated with MMP2 (20 ng/ml, SIGMA/USA) and CG-Noverin or CG-Renuin, respectively, and incubated for 6 hours. The supernatant obtained from centrifugation at 14,000×g for 10 minutes was analyzed using the pro-collagen type I kit (RnD system/USA).
Human dermal fibroblast (HDF) cells (3×10^4) were seeded in a 24-well plate, and then the next day, the medium was exchanged with a 5% serum medium. The cells were treated with IGF-1 (100 ng/ml, Sigma/USA), followed by incubation for 44 hours, and then the cells were treated with MMP2 (20 ng/ml) and CG-Noverin or CG-Renuin, respectively, followed by incubation for 4 hours. The supernatant obtained from centrifugation at 14,000×g for 10 minutes was analyzed using the pro-collagen type I kit.

T2 sequence (P33434 110-662): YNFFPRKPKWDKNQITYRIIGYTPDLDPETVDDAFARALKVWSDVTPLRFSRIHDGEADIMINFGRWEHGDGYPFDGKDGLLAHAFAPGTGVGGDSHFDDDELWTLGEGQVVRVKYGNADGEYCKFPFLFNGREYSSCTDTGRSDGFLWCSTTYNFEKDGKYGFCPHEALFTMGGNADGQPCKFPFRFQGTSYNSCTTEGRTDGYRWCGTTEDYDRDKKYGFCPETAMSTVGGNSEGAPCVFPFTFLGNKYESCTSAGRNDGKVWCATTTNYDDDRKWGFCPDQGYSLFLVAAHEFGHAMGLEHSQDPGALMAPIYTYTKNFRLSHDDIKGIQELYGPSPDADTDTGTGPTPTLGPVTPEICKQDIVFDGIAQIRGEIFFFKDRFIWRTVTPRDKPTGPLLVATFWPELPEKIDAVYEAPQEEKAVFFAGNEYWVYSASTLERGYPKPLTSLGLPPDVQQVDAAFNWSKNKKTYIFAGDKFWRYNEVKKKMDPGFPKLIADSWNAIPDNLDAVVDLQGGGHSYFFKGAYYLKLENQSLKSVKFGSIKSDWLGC

| Substance | proliferation of human primary dermal fibroblast cells [1] | phosphorylation of ERK [2] | phosphorylation of P38 [2] | MMP2 activity (gelatin zymography) [3] | MMP2 activity in fibroblast cells [4] | phagocytosis (melanosome transfer) [5] | collagen degradation induced by MMP2 [6] |
| --- | --- | --- | --- | --- | --- | --- | --- |
| NH2-Cys-Thr-Lys-Ile-Tyr-Asp-Pro-Val-Cys-COOH (H-CTKIYDPVC-OH; cysteine pairing not given here) [CG-Renuin] | increased depending on the treatment amount | increased | increased | directly inhibited | inhibited | inhibited | inhibited the induction of collagen degradation |
| NH2-Cys-Pro-Arg-His-Phe-Asn-Pro-Val-Cys-COOH (H-CPRHFNPVC-OH; cysteine pairing not given here) [CG-Noverin] | increased depending on the treatment amount | increased | increased | directly inhibited | inhibited | inhibited | inhibited the induction of collagen degradation |
